Tests used:
[1] = Guest molecule concentration after incubation in initial medium without polymer (Comparative Example 1); assay type: physicochemical; details: 37° C.
Procedure, shortened: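 Dissolved guest content measured by HPLC of centrifuged supernatants (37° C., 13000 rpm, 5 min) sampled at 0.5 h, 3 h and 6 h. Incubation was polymer-free at 37° C.±0.5° C. in buffers of pH 2.0-7.4; nominal loading was set by maximum clinical dose.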

[2] = Binary supramolecular self-assembly systems of polymer and target: guest concentration over incubation time (Comparative Example 2); assay type: physicochemical; details: for Times that of the initial medium / Concentration of guest molecule in solution: 6 h
Protocol: Experiments were conducted according to the steps in Comparative Example 1, and quantitative analysis was carried out using the analytical method for each target to investigate the regulation ability […] stacking.

[3] = Binary (carrier), ternary and quaternary supramolecular self-assembly systems of polymer, carrier building block and target: guest concentration over incubation time (Examples 1-56); assay type: physicochemical; details: 6 h
Procedure, shortened: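 Targets were incubated at 37 °C in pH 2.0–7.4 buffers with 0.5% polymer alone or with carrier building blocks, after 0.5 h sonication for ternary systems, and shaken at 200 rpm. Samples at 0.5–6 h were centrifuged and diluted ≥10-fold, and dissolved target was quantified by HPLC; surfactant was added if needed.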

[4] = cited from earlier work
[5] = 0.5 h, 0.05% SDS in pH 6.8 phosphate buffer
[6] = 3 h, 0.05% SDS in pH 6.8 phosphate buffer
[7] = 6 h, 0.05% SDS in pH 6.8 phosphate buffer
[8] = binary system with 0.5% polymer 101, incubation 0.5 h
[9] = binary system with 0.5% polymer 101, incubation 3 h
[10] = binary system with 0.5% polymer 101, incubation 6 h
[11] = binary system with 0.5% polymer 102, incubation 0.5 h
[12] = binary system with 0.5% polymer 102, incubation 3 h
[13] = binary system with 0.5% polymer 102, incubation 6 h
[14] = binary system with 0.5% polymer 103, incubation 0.5 h
[15] = binary system with 0.5% polymer 103, incubation 3 h
[16] = binary system with 0.5% polymer 103, incubation 6 h
[17] = binary system with 0.5% polymer 104, incubation 0.5 h
[18] = binary system with 0.5% polymer 104, incubation 3 h
[19] = binary system with 0.5% polymer 104, incubation 6 h
[20] = binary system with 0.5% polymer 106, incubation 0.5 h
[21] = binary system with 0.5% polymer 106, incubation 3 h
[22] = binary system with 0.5% polymer 106, incubation 6 h
[23] = binary system with 0.5% polymer 107, incubation 0.5 h
[24] = binary system with 0.5% polymer 107, incubation 3 h
[25] = binary system with 0.5% polymer 107, incubation 6 h
[26] = system built by polymers 102H and 103E3 with carrier 302
[27] = ternary: 102H (0.25% where stated) + 301, carrier % not stated
[28] = ternary: 102H (0.25% where stated) + 302, carrier % not stated

Structure (SMILES) | Concentration of guest molecule measured after different incubated time [1, 5] [µg/mL] | Concentration of guest molecule measured after different incubated time [1, 6] [µg/mL] | Concentration of guest molecule measured after different incubated time [1, 7] [µg/mL] | Concentration of the target in the solution measured after different incubation time [2, 8] [µg/mL] | Concentration of the target in the solution measured after different incubation time [2, 9] [µg/mL] | Concentration of the target in the solution measured after different incubation time [2, 10] [µg/mL] | Concentration of the target in the solution measured after different incubation time [2, 11] [µg/mL] | Concentration of the target in the solution measured after different incubation time [2, 12] [µg/mL] | Concentration of the target in the solution measured after different incubation time [2, 13] [µg/mL] | Concentration of the target in the solution measured after different incubation time [2, 14] [µg/mL] | Concentration of the target in the solution measured after different incubation time [2, 15] [µg/mL] | Concentration of the target in the solution measured after different incubation time [2, 16] [µg/mL] | Concentration of the target in the solution measured after different incubation time [2, 17] [µg/mL] | Concentration of the target in the solution measured after different incubation time [2, 18] [µg/mL] | Concentration of the target in the solution measured after different incubation time [2, 19] [µg/mL] | Concentration of the target in the solution measured after different incubation time [2, 20] [µg/mL] | Concentration of the target in the solution measured after different incubation time [2, 21] [µg/mL] | Concentration of the target in the solution measured after different incubation time [2, 22] [µg/mL] | Concentration of the target in the solution measured after different incubation time [2, 23] [µg/mL] | LogD7.4 or Log P [4] | other results
Cc1cn(-c2cc(NC(=O)c3ccc(C)c(Nc4nccc(-c5cccnc5)n4)c3)cc(C(F)(F)F)c2)cn1 [Nilotinib] | 35.2 | 24.2 | 17.9 | 117.0 | 145.8 | 149.9 | 96.7 | 188.9 | 189.9 | 125.2 | 159.3 | 181.5 | 77.5 | 84.9 | 61.4 | 121.2 | 81.8 | 50.0 | 107.2 | 5.35 | Concentration of the target in the solution measured after different incubation time [2, 24]: 62.3 µg/mL; Concentration of the target in the solution measured after different incubation time [2, 25]: 52.3 µg/mL; Times that of the initial medium ([2]; binary: 0.5% 102H): about 8.5 times; Times that of the initial medium ([2]; binary: 0.5% 104): ~2.7 times; Concentration of guest molecule in solution [3, 26]: 391.1 µg/mL; Encapsulation rate for the guest molecule [3, 26]: 97.8%; Concentration of guest molecule in solution [3, 27]: 227.2 µg/mL; Times that of the initial medium [3, 27]: 10 times; Concentration of guest molecule in solution ([3]; ternary: 102H + 310, carrier % not stated): 317.6 µg/mL; Concentration of guest molecule in solution ([3]; ternary: 102H + 313, carrier % not given): 365.2 µg/mL; Concentration of guest molecule in solution ([3]; ternary: 102M + 310): 344.0 µg/mL; Concentration of guest molecule in solution ([3]; ternary: 102M + 313): 328.9 µg/mL; Dissociation constant ([4]; basic drug): 5.92; Log D6.8 ([4]; pH 6.8): 5.27
O=C1[C@H](CC[C@H](O)c2ccc(F)cc2)[C@@H](c2ccc(O)cc2)N1c1ccc(F)cc1 [Ezetimibe] | 6.6 | 6.2 | 6.4 | – | – | – | 109.4 | 117.2 | 138.9 | 8.4 | 6.9 | 0.9 | 6.8 | 3.6 | 2.7 | – | – | – | – | 4.56 | Times that of the initial medium ([2]; binary: 0.5% 101): 18 times; Concentration of guest molecule in solution ([2]; binary: 0.5% 102H): 86.6 µg/mL; Times that of the initial medium ([2]; binary: 0.5% 102H): 13.5 times; Concentration of guest molecule in solution [3, 27]: 168.1 µg/mL; Times that of the initial medium [3, 27]: 26 times; Concentration of guest molecule in solution [3, 28]: 188.6 µg/mL; Times that of the initial medium [3, 28]: 29.5 times
CCOC(=O)C1=C(C)NC(C)=C(C(=O)OC)C1c1cccc(Cl)c1Cl (centres unmarked) [Felodipine] | – | – | – | 144.8 | 152.8 | 147.5 | 459.9 | 472.0 | 459.4 | 18.9 | 18.9 | 22.2 | – | – | – | 33.5 | 30.2 | 23.6 | 51.2 | 3.90 | Concentration of guest molecule measured after different incubated time ([1]; 0.5 h, 0.05% Tween 20 in pH 6.8 phosphate buffer): 18.1 µg/mL; Concentration of guest molecule measured after different incubated time ([1]; 3 h, 0.05% Tween 20 in pH 6.8 phosphate buffer): 17.8 µg/mL; Concentration of guest molecule measured after different incubated time ([1]; 6 h, 0.05% Tween 20 in pH 6.8 phosphate buffer): 20.4 µg/mL; Concentration of the target in the solution measured after different incubation time [2, 24]: 26.7 µg/mL; Concentration of the target in the solution measured after different incubation time [2, 25]: 11.8 µg/mL; Concentration of guest molecule in solution ([2]; binary: 0.25% 102H): 276 µg/mL; Times that of the initial medium ([2]; binary: 0.25% 102H): about 13.5 times; Concentration of guest molecule in solution ([3]; ternary: 0.25% 102H + 1.0% 313): 662 µg/mL; Times that of the initial medium ([3]; ternary: 0.25% 102H + 1.0% 313): about 32.5 times
